Assay [1] relates to Human colon carcinoma HCT116 cells (HCT116wt). The assay can be described thus: MTT cell viability assay, HCT116wt. Type of assay: cell-based. As to conditions: Homo sapiens, HCT-116, 72 h. As for the experimental part:
(§1) The MTT cell viability assay was performed 72 h after cells treatment with various concentrations of studied compounds and doxorubicin, a reference drug. […] It is known that ABCB1 (P-glycoprotein), MRP1/ABCC1 (multidrug resistance protein 1), and BCRP/BCG2 (breast cancer resistance protein) have been reported to be key players in resistance to chemotherapy. […] The p53 has diverse mutations in almost all human tumors, stimulating their hyper-proliferation, invasion/metastasis, and thus, influencing the potency of various chemotherapeutics (i.e., platins and anti-metabolites).
(§2) Human colon carcinoma HCT116 cells, human breast adenocarcinoma cells of MCF-7 line, human T-leukemia Jurkat cells, human chronic myelogenous leukemia K562 cells, and human keratinocytes of HaCaT line were from the Cell Collection of R.E. Kavetsky Institute of Experimental Pathology, Oncology and Radiobiology (Kyiv, Ukraine). Murine macrophages of J774.2 line were a generous gift from Professor Sir John Vane (William Harvey Research Institute, London, UK) via Professor Janusz Marcinkiewicz (Jagiellonian University Medical College, Krakow, Poland). Human colon carcinoma HCT116 p53-/- cells with knockdown of P53 gene, as well as human epidermoid cervix carcinoma KB3-1 cells and its ABCB1-overexpressing subline KBC-1, were kindly provided by Professor W. Berger (Institute of Cancer Research, Medical University of Vienna, Austria). […] Human leukemia monocytic THP-1 cells were kindly provided by Professor M. Herrmann (Department of Internal Medicine, Institute for Clinical Immunology and Rheumatology, University of Erlangen-Nuremberg, Germany). Cells were cultured in DMEM or RPMI-1640 medium supplemented with 10% fetal bovine serum (all were purchased from Biowest, Nuaille, France) at 37 °C in a humidified atmosphere containing 5% CO2.
(§3) MTT assay was used to examine the viability of tumor and pseudo-normal cells after their treatment with studied thiopyrano[2,3-d]thiazole derivatives and doxorubicin (Actavis S.R.L., Bucharest, Romania). Cells were seeded in 96-well plates at a density of 3–5 × 103. After 24 h, cells were treated with compound […], 1,4-NQ (0.1–100 µM), and doxorubicin (0.1–100 µM). After incubation for 72 h, MTT reagent (Sigma-Aldrich, St. Louis, MO, USA) was added to each well, according to the Sigma-Aldrich protocol. An absorbance Reader BioTek ELx800 (BioTek Instruments, Inc., Winooski, VT, USA) was used to measure the reaction product.
(Tetrazolium dyes change colour on reduction, which living cells bring about.)

For another assay, the system named is KB3-1 cells. The assay can be described thus: Fluorescence microscopy of cells, Hoechst-33342 staining. Format: cell-based, human. The conditions noted are these: 1 µM, 24 h. As for the experimental part:
One can also see giant KB3-1 cells with abnormal nuclei and looser chromatin (Figure 7B). The mitotic catastrophe may occur during or after aberrant mitosis. Mitotic catastrophe has been reported as a special example of apoptosis affecting mitochondrial membrane permeabilization and caspase activation. […] Thus, compound 3.6 induced pro-apoptotic cytomorphological changes in treated KB3-1 cells.
The KB3-1 cells were seeded in 24-well plates at 5 × 10^5/mL and then treated for an additional 24 h with compound […] (1 μM) and doxorubicin (1 μM). Cells were stained with 0.2–0.5 µg/mL of Hoechst-33342 and incubated for 20–30 min before the cell examination. A Zeiss fluorescent microscope (Carl Zeiss, Jena, Germany), AxioImager A1 camera (at 400× magnification), and AxioVision image analysis software Release 4.6.3.0 for Carl Zeis microscopy (Imaging Associates Ltd., Cork, Ireland, UK) were used for cells examination. All microphotographs were additionally analyzed using ImagePro7 software (Media Cybernetics, Rockville, MD, USA).

In assay [2] the test system is KBC-1 (ABCB1-overexpressing subline of KB3-1). The assay can be described thus: MTT cell viability assay, KBC-1. As to conditions: Homo sapiens, 72 h. Format: cell-based. As for the experimental part: as §1
as §2, with “Cells were cultured in DMEM or RPMI-1640 medium supplemented with 10% fetal bovine serum (all were purchased from Biowest, Nuaille, France) at 37 °C in a humidified atmosphere containing 5% CO2.” left out
(§4) MTT assay was used to examine the viability of tumor and pseudo-normal cells after their treatment with studied thiopyrano[2,3-d]thiazole derivatives and doxorubicin (Actavis S.R.L., Bucharest, Romania). […] An absorbance Reader BioTek ELx800 (BioTek Instruments, Inc., Winooski, VT, USA) was used to measure the reaction product.

In assay [3] the test system is human breast adenocarcinoma cells of MCF-7 line. The assay can be described thus: MTT cell viability assay, MCF-7. Type of assay: cell-based. As to conditions: Homo sapiens, MCF7, 72 h. As for the experimental part:
as §1, §2, §3

A further assay has as its system salmon sperm DNA. The assay can be described thus: DNA/methyl green colorimetric (replacement) assay. Format: binding. As for the experimental part: In addition, we used DNA/methyl green colorimetric assay to study the possible interaction of compound 3.6 in DNA. […] This assay was used to measure the displacement of methyl green from DNA by compounds with the ability to intercalate DNA [54].
The capacity of the tested compounds to intercalate into salmon sperm DNA was determined using the methyl green assay. Briefly, salmon sperm DNA (10 mg/mL) was incubated for 1 h at 37 °C with 15 µL of methyl green solution (1 mg/mL in H2O). The compounds were added at concentrations 1 and 10 µM/mL and incubated at 37 °C in the dark for 2 h. Reduction of the absorbance of methyl green at 642 nm induced by the test compounds was measured with a multiplate reader, Plate Reader BioTek Lx80 ( BioTek Instruments, Inc., Winooski, VT, USA). Doxorubicin, a well-known intercalating agent, was used as a positive control.

For assay [4], the system named is Murine macrophages of J774.2 line. The assay can be described thus: MTT cell viability assay, J774.2. Format: cell-based. As to conditions: pseudo-normal murine macrophages. As to the method: as §1, §2, §3
The next assay relates to Jurkat cells. The assay can be described thus: DNA laddering (DNA extraction and gel electrophoresis). Type of assay: cell-based, human. As to the method: DNA extraction and gel electrophoresis were performed as described by Herrmann and others. Jurkat cells were collected by centrifugation; lysed in a lysis buffer (1% NP-40 in 20 mM EDTA, 50 mM Tris-HCl, pH 7.5; 10 µL per 10 6 cells, minimum 50 µL). After centrifugation for 5 min at 1600× g, the supernatant was collected and the extraction was repeated with the same amount of lysis buffer. Supernatants were brought to 1% SDS and treated for 2 h with RNase A (final concentration 5 µg/mL) at 56 °C. Then, proteinase K was added (final concentration 2.5, µg/mL) and incubated for 2 h at 37 °C. After adding 1/2 volume of 10 M ammonium acetate, the DNA was precipitated with 2.5 vol. Ethanol, dissolved in gel loading buffer, and separated by electrophoresis in 1% agarose gels containing Ethidium bromide (at 70 V).

For assay [5], the system named is Human leukemia monocytic THP-1 cells. The assay can be described thus: MTT cell viability assay, THP-1. Format: cell-based. As to conditions: 72 h. As for the experimental part:
as §1
Human colon carcinoma HCT116 cells, human breast adenocarcinoma cells of MCF-7 line, human T-leukemia Jurkat cells, human chronic myelogenous leukemia K562 cells, and human keratinocytes of HaCaT line were from the Cell Collection of R.E. Kavetsky Institute of Experimental Pathology, Oncology and Radiobiology (Kyiv, Ukraine). […]
as §4

As a reminder, the IC50 is the concentration that gives 50% inhibition. A lower IC50 goes with higher potency.

In the case of `COc1cccc2c1C(=O)c1c(O)c3c(c(O)c1C2=O)C[C@@](O)(C(=O)CO)C[C@@H]3O[C@H]1C[C@H](N)[C@H](O)[C@H](C)O1` [Doxorubicin, doxorubicin, reference compound], the half-inhibitory concentration (IC50) in assay [1] was 0.07 µM; in assay [2] it was 1.97 µM; in assay [3] it was 0.63 µM; in assay [4] (72 h, listed as Dox), 0.97 µM; in assay [4] (Mus musculus, J774.2, 72 h), 0.8 to 1 µM; in assay [5], 14 µM. For the same molecule, in the assay with KB3-1 cells, the cytomorphological alterations result is “chromatin condensation and membrane blabbing”. Further, the methyl green replacement entry with salmon sperm DNA (10 µM, compared with compound 3.6) was “two times more effective”. Also, the DNA laddering entry in the assay on Jurkat cells (0.5 µM) is recorded as “more necrotic changes in treated Jurkat cells than apoptotic ones”.

Take `O=C1C2=C(C(=O)c3ccccc31)C(CCc1ccccc1)c1sc(=O)[nH]c1S2` (stereo not shown) [Compound 3.6, 11-Phenethyl-3,11-dihydro-2H-benzo[6,7]thiochromeno[2,3-d]thiazole-2,5,10-trione]: the IC50 in assay [1] worked out at 6.37 µM; in assay [2], 12.8 µM; in assay [3], 8.94 µM; in assay [4] (Mus musculus, J774.2, 72 h), 9.57 µM; in assay [5], 7.94 µM. The cytomorphological alterations entry in the assay with KB3-1 cells is “shrunk, with condensed chromatin and membrane blabbing”. In addition, in the assay on salmon sperm DNA (dependent on concentration (1 and 10 µM)), the “percentage of methyl green replacement” value is recorded as 35.00 to 39.64%. For the same molecule, the DNA laddering entry with Jurkat cells (1 µM) is recorded as “slight laddering of DNA”; with Jurkat cells (2.5 µM and 5 µM) it was “necrotic degradation of DNA”; with Jurkat cells (10 µM and 25 µM), “extreme DNA fragmentation”.

(Values after paper PMC9658586, “1,4-Naphthoquinone Motif in the Synthesis of New Thiopyrano[2,3-d]thiazoles as Potential Biologically Active Compounds” (Molecules, 2022).)
